Test results published in patent US20230212549A1, “COMPOUNDS COMPRISING A […] LIGAND AND USE THEREOF” (priority 2021, published 2023).
Blank lines part the entries; values can stand above or below the compound they belong to.

Tests used:
proteases [1] = molecular target: T1, proteases (Homo sapiens, UniProt Q12884); format: biochemical; conditions: FAP; Reference at 100 nM
T1 construct: BPS Biosciences (ran the screen)

Sarc4809 PDX tumors = experiment: Efficacy study, sarcoma Sarc4809 PDX model; conditions: throughout the study, 30 or 60 MBq
HEK-FAP tumors = experiment: Efficacy study, HEK-FAP tumor model; conditions: throughout the study, 30 or 60 MBq
proteases [2] = molecular target: T2, proteases (Homo sapiens, UniProt P08253); format: biochemical; conditions: Matrix metalloprotease 2; Reference at 100 nM
T2 construct: BPS Biosciences (ran the screen)

proteases [3] = molecular target: T3, proteases (Homo sapiens, UniProt P14780, Q279R); format: biochemical; conditions: 0.1 µM
T3 construct: BPS Biosciences (ran the screen)

proteases [4] = molecular target: T4, proteases (Homo sapiens, UniProt P03956); format: biochemical; conditions: Matrix metalloproteasel; Reference at 1 μM
T4 construct: BPS Biosciences (ran the screen)

KV channel = conditions: read-out: Ki Ref; reference compound (positive control)
proteases [5] = molecular target: T5, proteases (Homo sapiens, UniProt P40818); format: biochemical; conditions: Ubiquitin carboxyl-terminal hydrolase 8; Reference at 1 μM
T5 construct: BPS Biosciences (ran the screen)

proteases [6] = molecular target: T6, proteases (Homo sapiens, UniProt P15374); format: biochemical; conditions: Ubiquitin carboxy-terminal hydrolase L3; Reference at 10 nM
T6 construct: BPS Biosciences (ran the screen)

proteases [7] = molecular target: T7, proteases (Homo sapiens, UniProt P45974); format: biochemical; conditions: Ubiquitin carboxyl-terminal hydrolase 5; Reference at 1 μM
T7 construct: BPS Biosciences (ran the screen)

proteases [8] = molecular target: T8, proteases (Homo sapiens, UniProt P54578); format: biochemical; conditions: Ubiquitin carboxyl-terminal hydrolase 14; Reference at 100 nM
T8 construct: BPS Biosciences (ran the screen)

proteases [9] = molecular target: T9, proteases (Homo sapiens, UniProt Q8N6M0); format: biochemical; conditions: Deubiquitinase OTUD6B; Reference at 1 μM
T9 construct: BPS Biosciences (ran the screen)

proteases [10] = molecular target: T10, proteases (Homo sapiens, UniProt O75604); format: biochemical; conditions: Ubiquitin carboxyl-terminal hydrolase 2; Reference at 1 μM
T10 construct: BPS Biosciences (ran the screen)

proteases [11] = molecular target: T11, proteases (Homo sapiens, UniProt P21580); format: biochemical; conditions: A20; Reference at 1 μM
T11 construct: BPS Biosciences (ran the screen)

proteases [12] = molecular target: T12, proteases (Homo sapiens, UniProt Q93009); format: biochemical; conditions: Ubiquitin carboxyl-terminal hydrolase 7; Reference at 1 μM
T12 construct: BPS Biosciences (ran the screen)

proteases [13] = molecular target: T13, proteases (Homo sapiens, UniProt P09936); format: biochemical; conditions: Ubiquitin carboxy-terminal hydrolase L1; Reference at 100 nM
T13 construct: BPS Biosciences (ran the screen)

proteases [14] = molecular target: T14, proteases (Homo sapiens, UniProt P54252); format: biochemical; conditions: Ataxin3; Reference at 10 μM
T14 construct: BPS Biosciences (ran the screen)

proteases [15] = molecular target: T15, proteases (Homo sapiens, UniProt Q14694); format: biochemical; conditions: Ubiquitin carboxyl-terminal hydrolase 10; Reference at 1 μM
T15 construct: BPS Biosciences (ran the screen)

[16] = test system: metastatic colorectal cancer; conditions: patients with metastatic colorectal cancer, Phase I and II clinical trials; cited from earlier work
alpha 1A (h) = alpha 1A (h) (Homo sapiens, UniProt P35348); conditions: read-out: Ki Ref; reference compound (positive control)
5-HT2B (h) = 5-HT2B (h) (Homo sapiens, UniProt P41595); conditions: read-out: Ki Ref; reference compound (positive control)
proteases [17] = molecular target: T16, proteases (Homo sapiens, UniProt Q6V1X1); format: biochemical; conditions: DPP8; Reference at 200 μM
T16 construct: BPS Biosciences (ran the screen)

proteases [18] = molecular target: proteases (Homo sapiens, UniProt Q9UHL4); format: biochemical; conditions: DPP7; Reference at 200 μM
proteases [19] = molecular target: T17, proteases (Homo sapiens, UniProt Q9UBX1); format: biochemical; conditions: Cathepsin F; Reference at 1 μM
T17 construct: BPS Biosciences (ran the screen)

HEK-FAP tumor = experiment: SPECT imaging and biodistribution of ^111In-labelled compounds in mice with HEK-FAP tumors; format: in vivo; conditions: FIG. 21
Human recombinant FAP [20] = molecular target: T18, Human recombinant FAP (Homo sapiens, UniProt Q12884); experiment: Surface plasmon resonance (Biacore) assay; format: binding
[21] = molecular target: T19, FAP-expressing human WI-38 fibroblasts (Homo sapiens, UniProt Q12884); experiment: Competitive FACS binding assay
T19 construct: FAP-expressing human WI-38 fibroblasts (ECACC) were cultured in EMEM; host or cells: WI-38 human fibroblasts
Description: Cells were analyzed in an Attune NxT flow cytometer. […] […].
Cells were analyzed in an Attune NxT flow cytometer. […]

Human recombinant FAP [22] = molecular target: T18, Human recombinant FAP; experiment: FRET-based FAP protease activity assay; format: biochemical; set-up: purchased R&D systems 3715-SE; conditions: pIC50 Category (Activity), FRET-peptide substrate, 37° C.
proteases [23] = molecular target: T20, proteases (Hepatitis C virus genotype 1a, UniProt P27958, D1194V); format: biochemical; conditions: serine protease NS3 (a.a. 3-181) from Hepatitis C virus genotype 1a (mutant D168V); Reference at 100 nM
T20 construct: BPS Biosciences (ran the screen)

proteases [24] = molecular target: T21, proteases (Hepatitis C virus genotype 2a, UniProt Q99IB8); format: biochemical; conditions: serine protease NS3 (a.a. 3-181) from Hepatitis C virus genotype 2a; Reference at 100 nM
T21 construct: BPS Biosciences (ran the screen)

proteases [25] = molecular target: T22, proteases (Hepatitis C virus genotype 1b, UniProt P26663, D1194V); format: biochemical; conditions: serine protease NS3 (a.a. 3-181) from Hepatitis C virus genotype 1b (mutant D168V); Reference at 100 nM
T22 construct: BPS Biosciences (ran the screen)

proteases [26] = molecular target: T23, proteases (Hepatitis C virus genotype 1b, UniProt P26663); format: biochemical; conditions: serine protease NS3 (a.a. 3-181) from Hepatitis C virus genotype 1b; Reference at 100 nM
T23 construct: BPS Biosciences (ran the screen)

proteases [27] = molecular target: T24, proteases (Hepatitis C virus genotype 1b, UniProt P26663, R1181Q); format: biochemical; conditions: serine protease NS3 (a.a. 3-181) from Hepatitis C virus genotype 1b (mutant R155Q); Reference at 1 μM
T24 construct: BPS Biosciences (ran the screen)

[28] = In vivo SPECT/CT imaging of ^111In-3BP-4560 in mice; conditions: ^111In-labelled, FIG. 28
NMDA = conditions: read-out: Ki Ref; reference compound (positive control)
[29] = 24 h incubation, 37° C.
[30] = 24 h incubation, 37° C.; remark: listed apart in the source
[31] = molecular target: Ca2+ channel (L, dihydropyridine site) (Rattus norvegicus, UniProt P22002); experiment: biochemical; conditions: read-out: % Inhibition of Specific Binding
proteases [32] = molecular target: T25, proteases (Homo sapiens, UniProt P42574); format: biochemical; conditions: Caspase-3; Reference at 100 nM
T25 construct: BPS Biosciences (ran the screen)

proteases [33] = molecular target: T26, proteases (Homo sapiens, UniProt P55210); format: biochemical; conditions: Caspase-7; Reference at 1 μM
T26 construct: BPS Biosciences (ran the screen)

Compound: N#C[C@@H]1CC(F)(F)CN1C(=O)CNC(=O)c1ccnc2ccccc12 [SP-13786]
Percentage inhibition (%) (proteases [1]): 100%

Compound: CCCCCC(=O)N[C@H]1CSCc2cc(CSCCNC(=O)CN3CCN(CC(=O)O)CCN(CC(=O)O)CCN(CC(=O)O)CC3)cc(c2)CSC[C@@H](C(=O)O)NC(=O)[C@H](Cc2ccccc2)NC(=O)[C@H](CCC(N)=O)NC(=O)[C@H]([C@@H](C)O)NC(=O)[C@@H]2CCCN2C(=O)[C@@H]2CCCN2C1=O [^177Lu-3BP-3554, metal not drawn]
body weight loss (BWL) (Sarc4809 PDX tumors): No treatment-related body weight loss
body weight loss (HEK-FAP tumors): No treatment-related body weight loss

Compound: COc1ccc(S(=O)(=O)N(CC(=O)NO)CC(C)C)cc1 [NNGH]
Percentage inhibition (%) (proteases [2]): 95%
Percentage inhibition (%) (proteases [3]): 92%
Percentage inhibition (%) (proteases [4]): 87%

Compound: alpha-dendrotoxin
Ki (KV channel): 0.097 nM

Compound: Ub-Aldehyde
Percentage inhibition (%) (proteases [5]): 73%
Percentage inhibition (%) (proteases [6]): 95%
Percentage inhibition (%) (proteases [7]): 84%
Percentage inhibition (%) (proteases [8]): 96%
Percentage inhibition (%) (proteases [9]): 97%
Percentage inhibition (%) (proteases [10]): 91%
Percentage inhibition (%) (proteases [11]): 99%
Percentage inhibition (%) (proteases [12]): 95%
Percentage inhibition (%) (proteases [13]): 92%
Percentage inhibition (%) (proteases [14]): 77%
Percentage inhibition (%) (proteases [15]): 82%

Compound: Sibrotuzumab
patients having stable disease [16]: 2 out of 17

Compound: COc1cccc(OC)c1OCCNCC1COc2ccccc2O1 (centres unmarked) [WB 4101]
Ki (alpha 1A (h)): 0.24 nM

Compound: COc1cc(CC(C)N)c(OC)cc1I (racemic) [(±)DOI]
Ki (5-HT2B (h)): 4.2 nM

Compound: N#Cc1ccc(NCCNCC(=O)N2N=CCC2C#N)nc1 (centres unmarked) [KR62436]
Percentage inhibition (%) (proteases [17]): 96%
Percentage inhibition (%) (proteases [18]): 83%

Compound: Cystatin C
Percentage inhibition (%) (proteases [19]): 74%

uptake in healthy tissues (biodistribution) (HEK-FAP tumor): very low uptake in healthy tissues
Kd (Human recombinant FAP [20]): < 10 nM
IC50 [21]: < 10 nM
IC50 (Human recombinant FAP [22]): < 10 nM
Compound: CCCCNC(=O)N[C@H]1CSCc2cc(CSCCNC(=O)CN3CCN(CC(=O)O)CCN(CC(=O)O)CCN(CC(=O)O)CC3)cc(c2)CSC[C@@H](C(=O)O)NC(=O)[C@H](Cc2ccccc2)NC(=O)[C@H](CCC(N)=O)NC(=O)[C@H]([C@@H](C)O)NC(=O)[C@@H]2CCCN2C(=O)[C@@H]2CCCN2C1=O [3BP-3940, nBu-CAyl-[Cys(tMeBn(DOTA-AET))-Pro-Pro-Thr-Gln-Phe-Cys]-OH]
pKD Category (Human recombinant FAP [20]; Biacore assay): A (Category A stands for pKD values >8.0)

Compound: Denoprevir
Percentage inhibition (%) (proteases [23]): 94%
Percentage inhibition (%) (proteases [24]): 98%
Percentage inhibition (%) (proteases [25]): 99%
Percentage inhibition (%) (proteases [26]): 100%
Percentage inhibition (%) (proteases [27]): 99%

Kd (Human recombinant FAP [20]): < 10 nM
IC50 [21]: < 10 nM
IC50 (Human recombinant FAP [22]): < 10 nM
uptake in healthy tissues (biodistribution) [28]: very low uptake in healthy tissues
Compound: CCCCNC(=O)N[C@H]1CSCc2cc(CSCCNC(=O)CN3CCN(CC(=O)O)CCN(CC(=O)O)CCN(CC(=O)O)CC3)cc(c2)CSC[C@@H](C(N)=O)NC(=O)[C@H](Cc2ccccc2)NC(=O)[C@H](CCC(N)=O)NC(=O)[C@H]([C@@H](C)O)NC(=O)[C@@H]2CCCN2C(=O)[C@@H]2CCCN2C1=O [3BP-4560, nBu-CAyl-[Cys(tMeBn(DOTA-AET))-Pro-Pro-Thr-Gln-Phe-Cys]-NH2]

Compound: O=C(O)[C@@H]1C[C@H](CP(=O)(O)O)CCN1 [CGS 19755]
Ki (NMDA): 140 nM

Compound: CCCCCC(=O)N[C@H]1CSCc2cc(CSCCNC(=O)CN3CCN(CC(=O)O)CCN(CC(=O)O)CCN(CC(=O)O)CC3)cc(c2)CSC[C@@H](C(=O)O)NC(=O)[C@H](Cc2ccccc2)NC(=O)[C@H](CCC(N)=O)NC(=O)[C@H]([C@@H](C)O)NC(=O)[C@@H]2CCCN2C(=O)[C@@H]2CCCN2C1=O [3BP-3554, Hex-[Cys(tMeBn(DOTA-AET))-Pro-Pro-Thr-Gln-Phe-Cys]-OH]
% intact compound remaining after incubation, Human plasma [29]: 100% (24 h)
% intact compound remaining after incubation, Rat plasma [30]: 100% (24 h)
inhibition at 10 µM [31]: 54%

Compound: COC[C@@H]1CCCN1S(=O)(=O)c1ccc2c(c1)C(=O)C(=O)N2 [Caspase 3/7 Inhibitor I]
Percentage inhibition (%) (proteases [32]): 89%
Percentage inhibition (%) (proteases [33]): 92%
